{"source": "patent US20150250166A1", "about": "“NOOTKATONE AS AN INSECTICIDE AND INSECT REPELLENT” (ALLYLIX, INC., priority 2012, published 2015)", "format_in_all_cases": "in vivo", "key": {"[1]": {"system": "adult bed bugs (Cimex lectularius)", "assay": "Direct spray knockdown of adult bed bugs", "settings": "for bed bug knockdown activity, in words: early time points; for bed bugs exhibiting knockdown, average count of 5 trials (of 10): 10% nootkatone, 0.1% BHT in isopropanol", "method": "(§1) A direct spray formulation, containing 10% nootkatone (from Bedoukian Research, Inc., Product No. 800; Danbury, Conn.), 0.1% butylated hydroxytoluene (BHT) in isopropanol, stored at ambient temperature and humidity, was tested for efficacy for knockdown and mortality among adult bed bugs (Cimex lectularius). Adult bed bugs (ICR, Baltimore, Md.) used in this study were blood fed within 7 days of testing. The bed bugs were anesthetized with CO2 and five groups of ten bed bugs were transferred into 9 dram vials at least 2 hours prior to testing. Just prior to treatment, the bed bugs were transferred to 16 oz. paper solo cups with cloth glued to the bottom on the inside of the cup and a screened lid. Each replicate was then sprayed manually, using a 2-3 oz. pump sprayer, with 1 gram±0.1 grams of the 10% nootkatone formulation. Each replicate was sprayed separately from a vertical distance of 6 inches above the bed bugs. The spray bottle was weighed before and after treating each replicate to confirm the weight of the test sample dispensed. All spraying took place in a vented, stainless steel Peet Grady chamber (6×6×6 ft). […] Knockdown was defined as the inability of a bed bug to right itself when placed on its back. After the five minute time point, the bed bugs were transferred to recovery containers that hold 16 oz. paper solo cups equipped with screened lids. A further knockdown study took place at 15 minutes post treatment. Serving as control samples, five replicates of 10 adult bed bugs were treated with isopropyl alcohol alone and five replicates of 10 adult bed bugs were treated with water, following the protocol outlined above.\n(§2) A direct spray formulation, containing 5% nootkatone (from Bedoukian Research, Inc., Product No. 800; Danbury, Conn.), 0.1% butylated hydroxytoluene (BHT) in acetone, stored at ambient temperature and humidity, was tested for efficacy for knockdown and mortality among adult bed bugs (Cimex lectularius) using the same procedure as described in Example 1 above. Five replicates of ten bed bugs were sprayed with 1.0 g±20% of a 5% nootkatone in acetone solution stabilized with 0.1% BHT. An additional five replicates were treated with 1.0 g±20% of tap water to serve as a control."}, "[2]": {"system": "adult bed bugs (Cimex lectularius)", "assay": "Direct spray mortality of adult bed bugs", "settings": "for bed bug mortality, in words: within the 15 minute knockdown study; for Alive, Treatment (bed bug count, of 50) / Dead, Treatment (bed bug count, of 50) / Moribund, Treatment (bed bug count, of 50): 5% nootkatone, 0.1% BHT in acetone", "method": "as §1\nAfter the knockdown counts were complete, the bed bugs were maintained in treatment chambers, in the laboratory at ambient light, temperature, and humidity conditions. Mortality counts were made at 24 and 48 hours post treatment. […] Table 4 below provides the average mortality data for the five replicates of bed bugs treated with water, isopropanol alone, or with 10% nootkatone in isopropanol at 24 and 48 hours.\nas §2\nAfter the knockdown counts were complete, the bed bugs were maintained in treatment chambers, in the laboratory at ambient light, temperature, and humidity conditions. Mortality counts were made at 1, 2, 3, 4 and 5 days post treatment. […] Table 5 below provides the mortality data for the replicates of bed bugs treated with water (control) or with 5% nootkatone in acetone."}, "[3]": {"system": "adult cat fleas (Ctenocephalides felis)", "assay": "Direct spray knockdown of adult cat fleas", "settings": "10% nootkatone; for cat fleas knocked down, average count of 5 trials (of 10): 0.1% BHT in isopropanol", "method": "(§3) A direct spray formulation, containing 10% nootkatone, 0.1% butylated hydroxytoluene (BHT) in isopropanol, stored at ambient temperature and humidity, was tested for efficacy for knockdown and mortality among adult cat fleas (Ctenocephalides felis). Five replicates of 10 adult cat fleas (El Labs Inc (Soquel, Calif.)) were emptied from 9 dram vials into 5 gallon HDPE Payliner® pail liners lined with paper towels. Each replicate was sprayed manually with 1 gram±0.1 grams of the 10% nootkatone formulation from the rim of the pail liner. The spray bottle was weighed before and after treating each replicate to confirm the weight of the test sample dispensed. Five control replicates of 10 adult cat fleas were treated with isopropyl alcohol, following the same protocol. The study provided a single treatment of 10% nootkatone formulation or isopropyl alcohol. All spraying took place in a vented, stainless steel Peet Grady chamber (6×6×6 ft).\nThe average weight of isopropanol and 10% nootkatone formulation applied to the five replicates was 1.0 g and 1.07 g, respectively. […] Knockdown was defined as the failure of the cat flea to jump even following exhalation of a technician into the pail liner."}, "[4]": {"system": "adult cat fleas (Ctenocephalides felis)", "settings": "10% nootkatone in isopropanol, direct spray; 24 hours", "method": "as §3\nFollowing the knockdown studies, the payliners containing cat fleas were kept at ambient temperature and humidity in the laboratory. Mortality of cat fleas following isopropanol (control) and 10% nootkatone treatments was then recorded 24 hours after solution administration. Dead fleas were confirmed by probing the fleas or exhaling into the payliner to ensure lack of movement. […] Cat fleas that were able to jump were recorded as being alive. The number of moribund and dead fleas per replicate were added together for a total mortality count and divided by the number of fleas tested to derive percent mortality."}, "[5]": {"system": "adult bed bugs (Cimex lectularius)", "assay": "Bed bug repellency, treated versus untreated filter paper halves in Petri dish chamber", "settings": "for Repellency (%) Treatment Group / bed bugs on Nootkatone treatment filter paper (count, of 50) / Repellency (summary of bedbug repellency): 0.1% BHT; for Repellency (summary of bedbug repellency): Day 1"}, "[6]": {"settings": "time 1 (head: Minutes; text: days post treatment)"}, "[7]": {"settings": "time 2 (head: Minutes; text: days post treatment)"}, "[8]": {"settings": "time 3 (head: Minutes; text: days post treatment)"}, "[9]": {"settings": "time 4 (head: Minutes; text: days post treatment)"}, "[10]": {"settings": "time 5 (head: Minutes; text: days post treatment)"}, "[11]": {"settings": "10% nootkatone in isopropanol, 24 hr post treatment"}, "[12]": {"settings": "10% nootkatone in isopropanol, 48 hr post treatment"}, "[13]": {"settings": "0.50% nootkatone in acetone, Day 1, 0.5 hour"}}}
{"molecule": "C=C(C)[C@@H]1CCC2=CC(=O)C[C@@H](C)[C@]2(C)C1", "note": "[nootkatone, 4,4a,5,6,7,8-hexahydro-6-isopropenyl-4,4a-dimethyl-2(3H)-naphtalenone]", "values": [{"measurement": "bed bug knockdown compared with control, in words", "setting": "[1]; 5% nootkatone in acetone, 15 minutes", "result": "no greater effect on bed bug knockdown than that observed for the control"}, {"measurement": "bed bug knockdown activity, in words", "setting": "[1]; 5% nootkatone in acetone", "result": "some knockdown activity"}, {"measurement": "bed bug knockdown compared with isopropanol alone, in words", "setting": "[1]; 10% nootkatone in isopropanol, 15 minutes", "result": "no greater effect on bed bug knockdown than that observed for isopropanol alone"}, {"measurement": "bed bug knockdown activity, in words", "setting": "[1]; 10% nootkatone in isopropanol", "result": "some knockdown activity"}, {"measurement": "bed bugs exhibiting knockdown, average count of 5 trials (of 10)", "setting": "[1]; 0.5 min post treatment", "result": 1.6}, {"measurement": "bed bugs exhibiting knockdown, average count of 5 trials (of 10)", "setting": "[1]; 1 min post treatment", "result": 2.6}, {"measurement": "bed bugs exhibiting knockdown, average count of 5 trials (of 10)", "setting": "[1]; 2 min post treatment", "result": 4.6}, {"measurement": "bed bugs exhibiting knockdown, average count of 5 trials (of 10)", "setting": "[1]; 3 min post treatment", "result": 5}, {"measurement": "bed bugs exhibiting knockdown, average count of 5 trials (of 10)", "setting": "[1]; 4 min post treatment", "result": 4.6}, {"measurement": "bed bugs exhibiting knockdown, average count of 5 trials (of 10)", "setting": "[1]; 5 min post treatment", "result": 4.8}, {"measurement": "bed bugs exhibiting knockdown, average count of 5 trials (of 10)", "setting": "[1]; 15 min post treatment", "result": 4.4}, {"measurement": "bed bug mortality compared with control, in words", "setting": "[2]; 5% nootkatone in acetone, 5 days", "result": "did not kill bed bugs after 5 days above mortality levels observed for the control"}, {"measurement": "bed bug mortality, in words", "setting": "[2]; 5% nootkatone in acetone", "result": "No mortality was observed"}, {"measurement": "Alive, Treatment (bed bug count, of 50)", "setting": "[2]; [6]", "result": 50}, {"measurement": "Dead, Treatment (bed bug count, of 50)", "setting": "[2]; [6]", "result": 0}, {"measurement": "Moribund, Treatment (bed bug count, of 50)", "setting": "[2]; [6]", "result": 0}, {"measurement": "Alive, Treatment (bed bug count, of 50)", "setting": "[2]; [7]", "result": 49}, {"measurement": "Dead, Treatment (bed bug count, of 50)", "setting": "[2]; [7]", "result": 1}, {"measurement": "Moribund, Treatment (bed bug count, of 50)", "setting": "[2]; [7]", "result": 0}, {"measurement": "Alive, Treatment (bed bug count, of 50)", "setting": "[2]; [8]", "result": 48}, {"measurement": "Dead, Treatment (bed bug count, of 50)", "setting": "[2]; [8]", "result": 1}, {"measurement": "Moribund, Treatment (bed bug count, of 50)", "setting": "[2]; [8]", "result": 1}, {"measurement": "Alive, Treatment (bed bug count, of 50)", "setting": "[2]; [9]", "result": 45}, {"measurement": "Dead, Treatment (bed bug count, of 50)", "setting": "[2]; [9]", "result": 2}, {"measurement": "Moribund, Treatment (bed bug count, of 50)", "setting": "[2]; [9]", "result": 3}, {"measurement": "Alive, Treatment (bed bug count, of 50)", "setting": "[2]; [10]", "result": 42}, {"measurement": "Dead, Treatment (bed bug count, of 50)", "setting": "[2]; [10]", "result": 5}, {"measurement": "Moribund, Treatment (bed bug count, of 50)", "setting": "[2]; [10]", "result": 3}, {"measurement": "bed bug mortality compared with isopropanol alone, in words", "setting": "[2]; 10% nootkatone in isopropanol, 24 or 48 hours", "result": "did not kill bed bugs after 24 or 48 hours above mortality levels observed for isopropanol alone"}, {"measurement": "Alive, average bed bug count of 5 trials (of 10)", "setting": "[2]; [11]", "result": 6.4}, {"measurement": "Dead, average bed bug count of 5 trials (of 10)", "setting": "[2]; [11]", "result": 3.6}, {"measurement": "Moribund, average bed bug count of 5 trials (of 10)", "setting": "[2]; [11]", "result": 0}, {"measurement": "Alive, average bed bug count of 5 trials (of 10)", "setting": "[2]; [12]", "result": 5.2}, {"measurement": "Dead, average bed bug count of 5 trials (of 10)", "setting": "[2]; [12]", "result": 4.8}, {"measurement": "Moribund, average bed bug count of 5 trials (of 10)", "setting": "[2]; [12]", "result": 0}, {"measurement": "bed bug mortality, in words", "setting": "[2]; 10% nootkatone in isopropanol", "result": "No mortality was observed"}, {"measurement": "cat flea knockdown efficacy, in words", "setting": "[3]", "result": "not effective in knocking down cat fleas"}, {"measurement": "cat fleas knocked down, average count of 5 trials (of 10)", "setting": "[3]; 0.5 min", "result": 0.2}, {"measurement": "cat fleas knocked down, average count of 5 trials (of 10)", "setting": "[3]; 1 min", "result": 0.2}, {"measurement": "cat fleas knocked down, average count of 5 trials (of 10)", "setting": "[3]; 2 min", "result": 0.4}, {"measurement": "cat fleas knocked down, average count of 5 trials (of 10)", "setting": "[3]; 3 min", "result": 0}, {"measurement": "cat fleas knocked down, average count of 5 trials (of 10)", "setting": "[3]; 4 min", "result": 0.2}, {"measurement": "cat fleas knocked down, average count of 5 trials (of 10)", "setting": "[3]; 5 min", "result": 0.4}, {"measurement": "cat fleas knocked down, average count of 5 trials (of 10)", "setting": "[3]; 15 min", "result": 0}, {"measurement": "fleas knocked down, in words", "setting": "[3]; 15 minutes", "result": "no fleas were knocked down"}, {"measurement": "fleas knocked down", "setting": "[3]; within the first 5 minutes", "result": "no more than 4%"}, {"measurement": "Alive, average cat flea count of 5 trials (of 10)", "setting": "[4]", "result": 0}, {"measurement": "Dead, average cat flea count of 5 trials (of 10)", "setting": "[4]", "result": 9.6}, {"measurement": "Moribund, average cat flea count of 5 trials (of 10)", "setting": "[4]", "result": 0.4}, {"measurement": "Mortality (moribund plus dead) of cat fleas", "setting": "[4]", "result": 100, "unit": "%"}, {"measurement": "Repellency (%) Treatment Group", "setting": "[5]; 0.01% nootkatone in acetone, Day 1, 1.0 hour", "result": 66.0, "unit": "%"}, {"measurement": "bed bugs on Nootkatone treatment filter paper (count, of 50)", "setting": "[5]; 0.01% nootkatone in acetone, Day 1, 24.0 hour", "result": 21}, {"measurement": "bedbug repellency, in words", "setting": "[5]; 0.01% nootkatone in acetone, day 1 and day 2, statistically significant versus the control", "result": "moderate bedbug repellency"}, {"measurement": "Repellency (%) Treatment Group", "setting": "[5]; 0.10% nootkatone in acetone, Day 1, 0.5 hour", "result": 94.0, "unit": "%"}, {"measurement": "Repellency (%) Treatment Group", "setting": "[5]; 0.10% nootkatone in acetone, Day 1, 2.0 hour", "result": 94.0, "unit": "%"}, {"measurement": "bedbug repellency, in words", "setting": "[5]; 0.1% nootkatone in acetone, day one", "result": "good bedbug repellent for one day"}, {"measurement": "Repellency (%) Treatment Group", "setting": "[5]; [13]", "result": 100.0, "unit": "%"}, {"measurement": "bed bugs on Nootkatone treatment filter paper (count, of 50)", "setting": "[5]; [13]", "result": 0}, {"measurement": "bed bugs on Nootkatone treatment filter paper (count, of 50)", "setting": "[5]; 0.50% nootkatone in acetone, Day 1, Average of time points", "result": 0.0}, {"measurement": "Repellency (%) Treatment Group", "setting": "[5]; 0.50% nootkatone in acetone, Day 2, 1.0 hour", "result": 88.0, "unit": "%"}, {"measurement": "bed bugs on Nootkatone treatment filter paper (count, of 50)", "setting": "[5]; 0.50% nootkatone in acetone, Day 2, Average of time points", "result": 4.2}, {"measurement": "bedbug repellency, in words", "setting": "[5]; 0.5% nootkatone in acetone, two days", "result": "good bedbug repellent for two days"}, {"measurement": "Repellency (summary of bedbug repellency)", "setting": "[5]; Nootkatone 0.010% in acetone", "result": 66.0, "unit": "%"}, {"measurement": "Repellency (summary of bedbug repellency)", "setting": "[5]; Nootkatone 0.10% in acetone", "result": 93.6, "unit": "%"}]}
